Test [1] has as its system mouse colon cancer cell CT26.wt subcutaneous homograft tumor. Kind of test: In vivo pharmacodynamic study, CT26.wt subcutaneous homograft tumor model, combination with PD-1 antibody. To be noted: CT26.wt tumor-bearing Balb/c mice, day 13; Compound 1 15 mg/kg PO QD; PD-1 antibody 10 mg/kg IP BIW; 1-14 days. The source says: Example 5: In Vivo Pharmacodynamic Study of the Compound of the Present Invention Combined with PD-1 Antibody on Mouse Colon Cancer Cell CT26.Wt Subcutaneous Homograft Tumor Model
Test sample: compound 1 of the present invention, having a structure shown above.
CT26.wt cells: mouse colon cancer cells from the Cell Bank of the Chinese Academy of Sciences.
Balb/c mice, 6- to 8-week-old, female, from Beijing Vital River Laboratory Animal Technology Co., Ltd.
PD-1 antibody: InVivoMAb anti-mouse PD-1, clone number: RMP1-14, company: BioXcell, Cat. No. BE0146.
CT26.wt cells were cultured in monolayer in vitro under the condition of an RPMI1640 medium supplemented with 10% heat-inactivated fetal bovine serum and 1% penicillin-streptomycin double antibody, and the culture was carried out at 37° C. and 5% CO2. […] When the cells were in the exponential growth phase, the cells were harvested, counted, and inoculated.
0.1 mL of a cell suspension containing about 1×10^6 CT26.wt cells (cells suspended in serum-free basal RPMI1640 medium) was inoculated subcutaneously into the left back skin of female Balb/c mice. […] Grouping method: Animals were weighed before administration and tumor volumes were measured. […]
Animals were monitored daily for health status and mortality, body weight and tumor volume were measured twice a week, and samples were collected after the last administration. […]

The subject of test [2] is IDO-1 expression in Hela cells. As to the kind of experiment: Regulation of IDO protein levels in Hela cells (western blot). Type of test: cell-based. To be noted: interferon 50 ng/mL, co-incubation 16 h, 10-10000 nM, FIG. 2. The text has this:
Example 6: Study on Regulation of IDO Protein Levels in Hela Cells by the Compound of the Present Invention
Cells: Hela Cells from Cobioer.
Reagents: DMEM medium, fetal bovine serum, penicillin, streptomycin, […] from SinoBiological, protein loading buffer, RIPA protein lysis buffer, protease inhibitor, BCA protein content assay kit, trihydroxymethyl aminomethane, sodium dodecyl sulfate, ammonium persulfate, 30% Acry-Bis solution, phosphate buffer, Tween 20, bovine serum albumin, GAPDH antibody (rabbit) from CST company, IDO-1 antibody (rabbit) from CST, anti-rabbit secondary antibody from CST, and protein marker.
Cell culture and plating: Hela cells were cultured in a DMEM medium containing 10% fetal bovine serum and 1% penicillin-streptomycin double antibody and incubated in a water-jacketed incubator at 37° C. and 5% CO2. Subculture treatment was carried out in a 1:4 ratio. When the cells were in the exponential growth phase, the cells were harvested, counted, plated at a density of 5×10^5 cells/well in a 6-well cell culture plate, and cultured overnight. […]
Protein content assay and sample configuration: Protein content in each well was measured by using a BCA kit and Nanodrop, and according to the detection result, a sample loading buffer and a lysis buffer were added to adjust to a system of […] of protein/10 μL for sample loading of Western Blot detection. […]
Background: Immunoblotting shows a protein as a band on a membrane.

The subject of test [3] is mouse B cell lymphoma A20 subcutaneous homograft tumor. As to the kind of experiment: In vivo pharmacodynamic study, A20 subcutaneous homograft tumor model, combination with PD-L1 antibody. As to conditions: A20 tumor-bearing Balb/c mice; Compound 1 7.5 mg/kg oral Qd; PD-L1 antibody 10 mg/kg IP Q3d; 19 days. The procedure: Example 7: In Vivo Pharmacodynamic Study of the Compound of the Present Invention Combined with PD-L1 on Mouse B Cell Lymphoma A20 Subcutaneous Homograft Tumor Model
A20 cells: mouse B cell lymphoma cells from ATCC.
Balb/c mice, 6- to 8-week-old, female, from Zhejiang Vital River Laboratory Animal Technology Co., Ltd.
(§1) PD-L1 antibody: InVivoMAb anti-mouse PD-L1 (B7-H1), clone number: 10F.9G2 (IgG2b), company: BioXcell, Cat. No. BE0101.
A20 cells were cultured in monolayer in vitro. When the cells were in the exponential growth phase, the cells were harvested, counted, and inoculated.
0.04 mL of a cell suspension containing about 6×10^5 A20 cells was inoculated subcutaneously into the back skin of female Balb/c mice. The mice were grouped for administration when the average volume of tumors reached approximately 60 mm^3. Grouping method: Animals were weighed before administration and tumor volumes were measured. Grouping was designed in blocks according to the tumor volume, with 8 mice per group.
Administration was carried out as in Table 4 below.
(§2) Animals were monitored daily for health status and mortality, body weight and tumor volume were measured twice a week, and samples were collected after the last administration. The therapeutic effect of tumor volume was evaluated by TGI %, and the evaluation was conducted as shown in Example 5.

Test [4] relates to mouse colon cancer MC38 subcutaneous homograft tumor. As to the kind of experiment: In vivo pharmacodynamic study, MC38 subcutaneous homograft tumor model, combination with PD-L1 antibody. As to conditions: MC38 tumor-bearing C57BL/6 mice; Compound 1 7.5 mg/kg oral Qd; PD-L1 antibody 5 mg/kg IP Q3d; 25 days. The procedure:
Example 8: In Vivo Pharmacodynamic Study of the Compound of the Present Invention Combined with PD-L1 on Mouse Colon Cancer MC38 Subcutaneous Homograft Tumor Model
MC38 cells: mouse colon cancer cells from ATCC.
(§3) C57BL/6 mice, 6- to 8-week-old, female, from Shanghai Slac Laboratory Animal Co., Ltd.
as §1
MC38 cells were cultured in monolayer in vitro. When the cells were in the exponential growth phase, the cells were harvested, counted, and inoculated.
0.04 mL of a cell suspension containing about 3×10^5 MC38 cells was inoculated subcutaneously into the back skin of female C57BL/6 mice. The mice were grouped for administration when the average volume of tumors reached approximately 60 mm^3. Grouping method: Animals were weighed before administration and tumor volumes were measured. Grouping was designed in blocks according to the tumor volume, with 8 mice per group.
Administration was carried out as in Table 6 below.
as §2

The subject of test [5] is mouse pancreatic cancer Pan02 subcutaneous homograft tumor. Kind of test: In vivo pharmacodynamic study, Pan02 subcutaneous homograft tumor model, combination with PD-L1 antibody. To be noted: Pan02 tumor-bearing C57BL/6 mice; Compound 1 7.5 mg/kg oral Qd; PD-L1 antibody 10 mg/kg IP Q3d; 25 days. The procedure: Example 9: In Vivo Pharmacodynamic Study of the Compound of the Present Invention Combined with PD-L1 on Mouse Pancreatic Cancer Pan02 Subcutaneous Homograft Tumor Model
Pan02 cells: mouse pancreatic cancer cells from ATCC.
as §3
PD-L1 antibody: InVivoMAb anti-mouse PD-L1 (B7-H1), clone number: 10F.9G2 (IgG2b), company: BioXcell, Cat. No. BE0101
Pan02 cells were cultured in monolayer in vitro. When the cells were in the exponential growth phase, the cells were harvested, counted, and inoculated.
0.06 mL of a cell suspension containing about 1×10^6 Pan02 cells was inoculated subcutaneously into the back skin of female C57BL/6 mice. The mice were grouped for administration when the average volume of tumors reached approximately 60 mm^3. Grouping method: Animals were weighed before administration and tumor volumes were measured. Grouping was designed in blocks according to the tumor volume, with 7 mice per group.
Administration was carried out as in Table 8 below.
as §2

The subject of the next test is endometrial cancer. To be noted: PD-1 antibody combined with E7080, endometrial cancer, ASCO 2017 clinical data; cited from earlier work.

These results are taken from US20250082650A1, “COMBINED USE OF MULTIKINASE INHIBITOR” (TRANSTHERA SCIENCES (NANJING), INC., priority 2021, published 2025).

For orientation: TGI means the reduction of tumour growth relative to the control group.

`Cc1[nH]nc2c1N=C(c1ccccc1Cl)c1cnc(N3CCOCC3)cc1N2` [Compound 1, 4-(5-(2-chlorophenyl)-3-methyl-2,10-dihydropyrazolo[4,3-b]pyrido[4,3-e][1,4]diazepin-8-yl)morpholine]: in test [1], the “TGI (tumor volume inhibition rate)” value was found to be 48%. The Tumor volume was 1150 ± 142 mm^3 in test [1], 519 mm^3 in test [3], 554 mm^3 in test [4] and 921 mm^3 in test [5]. Also, in test [2], the “Expression of IDO-1 in Hela cells” value is on record as “could effectively reduce the expression of IDO-1”. Further, the TGI in test [3] is given as 26%; in test [4], 50%; in test [5], 71%.

In the case of `COc1cc2nccc(Oc3ccc(NC(=O)NC4CC4)c(Cl)c3)c2cc1C(N)=O` [Compound E7080], the Control rate in the test with endometrial cancer is given as 96%.
